Columns and labels:
mutated IDH1 = experiment: Nonclinical pharmacology: inhibition of mutated IDH1; type: biochemical
wild type IDH1 = wild type IDH1 (Homo sapiens, UniProt O75874); experiment: Nonclinical pharmacology: inhibition of wild type IDH1; type: biochemical
mutated IDH2 proteins = experiment: Nonclinical pharmacology: inhibition of mutated IDH2; type: biochemical
[1] = system: cell lines expressing mutated IDH1 proteins (R132H, R132L, R132S, R132G, and R132C); experiment: 2-HG production in cell lines expressing mutated IDH1 proteins; type: cell-based; details: read-out: IC50 for suppression of 2-HG production
primary human AML cells = experiment: Treatment of primary human AML cells; type: cell-based
[2] = system: 2-HG plasma concentrations; experiment: PK/PD analysis of 2-HG plasma concentrations in patients with AML; type: in vivo, human; details: 150 mg BID, by the end of the first cycle; %CV 122%
[3] = Clinical pharmacokinetics after oral administration; type: in vivo, human
[4] = Food effect study in healthy subjects; type: in vivo, human; details: single 150 mg dose
cytochrome P450 (CYP)3A4 = cytochrome P450 (CYP)3A4 (Homo sapiens, UniProt P08684); experiment: Metabolism by cytochrome P450 enzymes; type: in vitro ADME; details: minor contributions from CYP2C8, CYP2C9, CYP1A2, CYP2C19
[5] = Clinical drug-drug interaction with rifampin or itraconazole; type: in vivo
CYP3A4 = experiment: Mechanistic static DDI risk assessment with in vitro data: CYP3A4 induction; type: in vitro ADME; details: at the recommended dosage
CYP2B6 = experiment: Mechanistic static DDI risk assessment with in vitro data: CYP2B6 induction; type: in vitro ADME; details: at the recommended dosage
CYP1A2 = experiment: Mechanistic static DDI risk assessment with in vitro data: CYP1A2 induction; type: in vitro ADME; details: at the recommended dosage
CYP2C8 = experiment: Mechanistic static DDI risk assessment with in vitro data: CYP2C8 induction; type: in vitro ADME; details: at the recommended dosage
CYP2C9 = experiment: Mechanistic static DDI risk assessment with in vitro data: CYP2C9 induction; type: in vitro ADME; details: at the recommended dosage
OATP1B1 = experiment: Mechanistic static DDI risk assessment with in vitro data: OATP1B1 inhibition; type: in vitro ADME; details: at the recommended dosage
CYP2C19 = experiment: Hepatocyte induction study: CYP2C19; type: in vitro ADME
[6] = QTc interval assessment in patients; type: in vivo, human; details: elevated exposures under fed condition
[7] = system: adult patients with R/R AML harboring an IDH1 R132 mutation; experiment: Study 2102-HEM-101 pivotal cohort: efficacy; type: in vivo, human
rats [8] = type: in vivo; details: after 48 hours of exposure to UV light
pregnant rats = experiment: Embryo-fetal development study in rats; type: in vivo
pregnant rabbits = experiment: Embryo-fetal development study in rabbits; type: in vivo
patients with R/R AML [9] = details: in vivo
rats [10] = details: rat, in vivo
cynomolgus monkeys = details: cynomolgus monkey, in vivo
[11] = in vivo
patients with R/R AML [12] = experiment: Study 2102-HEM-101 pivotal cohort: safety
[13] = system: adult patients with R/R AML or myelodysplastic syndrome (MDS) harboring an IDH1 R132 mutation; experiment: Study 2102-HEM-101 dose escalation/expansion portion
[14] = system: patients with R/R AML and a susceptible IDH1 mutation; details: cited from earlier work
[15] = concomitant multiple doses of rifampin, a strong CYP3A inducer

Chain of wild type IDH1 (O75874 whole entry): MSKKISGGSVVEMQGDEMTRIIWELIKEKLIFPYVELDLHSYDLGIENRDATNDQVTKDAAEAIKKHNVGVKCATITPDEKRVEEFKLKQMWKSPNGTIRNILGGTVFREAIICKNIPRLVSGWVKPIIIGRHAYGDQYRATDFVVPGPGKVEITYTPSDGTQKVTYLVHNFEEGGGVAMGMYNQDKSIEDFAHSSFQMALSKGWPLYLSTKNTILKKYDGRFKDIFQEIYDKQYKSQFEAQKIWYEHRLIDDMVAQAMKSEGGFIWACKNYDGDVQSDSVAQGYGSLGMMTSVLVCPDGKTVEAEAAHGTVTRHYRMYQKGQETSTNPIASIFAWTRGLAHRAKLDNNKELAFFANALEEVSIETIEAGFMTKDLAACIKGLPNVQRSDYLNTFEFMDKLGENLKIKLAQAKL
Chain of cytochrome P450 (CYP)3A4 (P08684 whole entry): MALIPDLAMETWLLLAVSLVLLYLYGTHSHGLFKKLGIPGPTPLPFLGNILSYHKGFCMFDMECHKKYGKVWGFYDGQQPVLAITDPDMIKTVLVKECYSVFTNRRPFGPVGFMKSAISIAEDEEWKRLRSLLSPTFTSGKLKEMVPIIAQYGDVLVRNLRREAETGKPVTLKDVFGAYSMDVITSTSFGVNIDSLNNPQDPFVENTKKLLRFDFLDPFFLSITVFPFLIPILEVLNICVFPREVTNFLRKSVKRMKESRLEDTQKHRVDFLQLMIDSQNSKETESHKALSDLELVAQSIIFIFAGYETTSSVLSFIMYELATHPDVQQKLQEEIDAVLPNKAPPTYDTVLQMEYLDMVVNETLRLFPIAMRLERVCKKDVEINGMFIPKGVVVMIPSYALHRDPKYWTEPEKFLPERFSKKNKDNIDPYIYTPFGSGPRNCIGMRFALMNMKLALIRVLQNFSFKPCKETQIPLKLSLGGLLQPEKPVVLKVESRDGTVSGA

Structure (SMILES): C[C@H](Nc1ccc(C#N)n(C)c1=O)c1cc2cc(Cl)ccc2[nH]c1=O [Olutasidenib, olutasidenib]
- inhibitory activity against mutated IDH1 (mutated IDH1): inhibited
- inhibitory activity against wild type IDH1 (wild type IDH1): little or no inhibitory activity
- inhibitory activity against mutated IDH2 proteins (mutated IDH2 proteins): little or no inhibitory activity
- IC50 [1]: 8 to 116 nM
- 2-HG production (primary human AML cells): suppressed 2-HG production
- cell differentiation (primary human AML cells): induced granulocytic/monocytic cell differentiation
- cell proliferation (primary human AML cells): increased cell proliferation
- mean reduction of 2-HG plasma concentration [2]: 59.1%
- dose proportionality of Cmax and AUC ([3]; dose range of 100 to 300 mg): increased less than proportionally
- time to steady-state plasma levels ([3]; human, in vivo): ≤ 14 days
- half-life ([3]; human, plasma, po): ~67 h
- time to maximum plasma concentration (Cmax) ([3]; oral administration): approximately 4 hours
- mean increase of AUCinf with a high-fat meal ([4]; CV% 18.3%): 83%
- mean increase of Cmax with a high-fat meal ([4]; CV% 20.6%): 191%
- share of metabolism by CYP3A4 (cytochrome P450 (CYP)3A4): 90%
- differences in PK with itraconazole ([5]; concomitant multiple doses of itraconazole, a strong CYP3A and P-gp inhibitor): No clinically significant differences
- decrease of AUC with rifampin [5, 15]: 80%
- decrease of Cmax with rifampin [5, 15]: 43%
- CYP3A4 induction potential (CYP3A4): may induce
- CYP2B6 induction potential (CYP2B6): may induce
- CYP1A2 induction potential (CYP1A2): may induce
- CYP2C8 induction potential (CYP2C8): may induce
- CYP2C9 induction potential (CYP2C9): may induce
- OATP1B1 inhibition potential (OATP1B1): inhibit
- potential to induce CYP2C19 (CYP2C19): cannot be ruled out
- QT prolongation expected under a fed condition [6]: ≤ 30 ms
- CR + CRh rate ([7]; 150 mg BID, 147 efficacy-evaluable patients, 95% CI 27-43%): 35%
- CR + CRh, n (%) ([7]; 150mg BID, N=147): 51 (35) n (%)
- CR, n (%) ([7]; 150mg BID, N=147): 47 (32) n (%)
- Median DOCR ([7]; 150mg BID, N=147): 28.1 months
- Median DOCRh ([7]; 150mg BID, N=147): 3.6 months
- median duration of CR + CRh (DOCR + CRh, duration of response) ([7]; 150 mg BID, N=147, 95% CI 13.5, NR): 25.9 months
- conversion from transfusion dependence (TD) to transfusion independence (TI) ([7]; 29 of 86 patients TD at baseline): 34%
- maintenance of TI in patients TI at baseline ([7]; 39/61 patients): 64%
- CR + CRh rate at interim analysis for efficacy ([7]; 41 out of 123 efficacy evaluable subjects, 95% CI 25.1%-42.4%): 33%
- patients able to proceed to allogeneic stem cell transplantation after treatment ([7]; sixteen of 147 patients): 11%
- phototoxicity finding (rats [8]): erythema in the skin
- embryo-fetal development findings (pregnant rats): embryo-fetal death and altered fetal growth
- embryo-fetal development findings (pregnant rabbits): embryo-fetal death and altered fetal growth
- Abdominal Pain, Any Grade (patients with R/R AML [9]; human): 28 (18)
- Abdominal Pain, Grade ≥3 (patients with R/R AML [9]; human): 1 (1)
- Arthralgia, Any Grade (patients with R/R AML [9]; human): 43 (28)
- Arthralgia, Grade ≥3 (patients with R/R AML [9]; human): 4 (3)
- Constipation, Any Grade (patients with R/R AML [9]; human): 39 (26)
- Constipation, Grade ≥3 (patients with R/R AML [9]; human): 0
- Cough, Any Grade (patients with R/R AML [9]; human): 26 (17)
- Cough, Grade ≥3 (patients with R/R AML [9]; human): 1 (1)
- Diarrhea, Any Grade (patients with R/R AML [9]; human): 31 (20)
- Diarrhea, Grade ≥3 (patients with R/R AML [9]; human): 2 (1)
- Differentiation Syndrome, Any Grade (patients with R/R AML [9]; human): 25 (16)
- Differentiation Syndrome, Grade ≥3 (patients with R/R AML [9]; human): 13 (8)
- Dyspnea, Any Grade (patients with R/R AML [9]; human): 37 (24)
- Dyspnea, Grade ≥3 (patients with R/R AML [9]; human): 4 (3)
- Edema, Any Grade (patients with R/R AML [9]; human): 27 (18)
- Edema, Grade ≥3 (patients with R/R AML [9]; human): 4 (3)
- Fatigue/Malaise, Any Grade (patients with R/R AML [9]; human): 55 (36)
- Fatigue/Malaise, Grade ≥3 (patients with R/R AML [9]; human): 2 (1)
- Grade 3 or higher adverse reaction: dyspnea (patients with R/R AML [9]; human): 5%
- Grade 3 or higher adverse reaction: hypertension (patients with R/R AML [9]; human): 5%
- Grade 3 or higher adverse reaction: leukocytosis (patients with R/R AML [9]; human): 9%
- Grade 3 or higher adverse reaction: transaminitis (patients with R/R AML [9]; human): 12%
- Grade 3 or higher differentiation syndrome (patients with R/R AML [9]; human): 8%
- Headache, Any Grade (patients with R/R AML [9]; human): 19 (13)
- Headache, Grade ≥3 (patients with R/R AML [9]; human): 0
- Hypertension, Any Grade (patients with R/R AML [9]; human): 16 (10)
- Hypertension, Grade ≥3 (patients with R/R AML [9]; human): 7 (5)
- Leukocytosis, Any Grade (patients with R/R AML [9]; human): 38 (25)
- Leukocytosis, Grade ≥3 (patients with R/R AML [9]; human): 14 (9)
- Mucositis, Any Grade (patients with R/R AML [9]; human): 35 (23)
- Mucositis, Grade ≥3 (patients with R/R AML [9]; human): 5 (3)
- Nausea, Any Grade (patients with R/R AML [9]; human): 57 (38)
- Nausea, Grade ≥3 (patients with R/R AML [9]; human): 0
- Pyrexia, Any Grade (patients with R/R AML [9]; human): 36 (24)
- Pyrexia, Grade ≥3 (patients with R/R AML [9]; human): 1 (1)
- QTc prolongation TEAE, Grade 3 or higher (patients with R/R AML [9]; human): 1%
- QTc prolongation TEAE, any grade (patients with R/R AML [9]; human): 8%
- Rash, Any Grade (patients with R/R AML [9]; human): 36 (24)
- Rash, Grade ≥3 (patients with R/R AML [9]; human): 2 (1)
- Transaminitis, Any Grade (patients with R/R AML [9]; human): 31 (20)
- Transaminitis, Grade ≥3 (patients with R/R AML [9]; human): 18 (12)
- Vomiting, Any Grade (patients with R/R AML [9]; human): 25 (16)
- Vomiting, Grade ≥3 (patients with R/R AML [9]; human): 1 (1)
- differentiation syndrome (DS), all grades (patients with R/R AML [9]; human): 16%
- dose reductions due to adverse reactions (patients with R/R AML [9]; human): 11%
- median time to onset of DS (patients with R/R AML [9]; human): 14 days
- median time to onset of transaminitis (patients with R/R AML [9]; human): 1.2 months
- median time to resolution of transaminitis (patients with R/R AML [9]; human): 12 days
- patients who discontinued therapy due to an AR (patients with R/R AML [9]; human): 8%
- patients with DS who had olutasidenib held (patients with R/R AML [9]; human): 44%
- patients with DS who recovered after treatment or dosage interruption (patients with R/R AML [9]; human): 76%
- patients with a Grade 3 or 4 TEAE (patients with R/R AML [9]; human): 84%
- patients with a Grade 3 or 4 hepatotoxicity TEAE (patients with R/R AML [9]; human): 13%
- patients with dose held due to QTc prolongation (patients with R/R AML [9]; human): 1%
- patients with therapy discontinued due to a hepatobiliary AR (patients with R/R AML [9]; human): 5%
- patients with therapy reduced due to a hepatobiliary AR (patients with R/R AML [9]; human): 6%
- patients with treatment interrupted due to an AR (patients with R/R AML [9]; human): 32%
- rate of ALT elevation (patients with R/R AML [9]; human): 46%
- rate of AST elevation (patients with R/R AML [9]; human): 47%
- treatment discontinuation due to DS (patients with R/R AML [9]; human): 3%
- treatment discontinuation due to gallbladder disorders (patients with R/R AML [9]; human): 1%
- treatment discontinuation due to transaminitis (patients with R/R AML [9]; human): 3%
- treatment interruption due to DS (patients with R/R AML [9]; human): 7%
- treatment interruption due to transaminitis (patients with R/R AML [9]; human): 10%
- Hy's Law cases (patients with R/R AML [9]): no confirmed Hy’s Law cases
- patients with dose reduced or discontinued due to QTc prolongation (patients with R/R AML [9]): no patients
- general toxicology findings (rats [10]): altered glucose and lipid metabolism, inflammation, and the GI tract, liver, kidney, and cardiovascular system as the main organs of toxicity
- general toxicology findings (cynomolgus monkeys): altered glucose and lipid metabolism, inflammation, and the GI tract, liver, kidney, and cardiovascular system as the main organs of toxicity
- tissue distribution [11]: binding of olutasidenib to melanin-containing tissues
- deaths due to complications from DS (patients with R/R AML [12]; 2 deaths, of on treatment deaths): 4%
- 30-day mortality (patients with R/R AML [12]; 13 patients): 8%
- deaths on treatment (on or within 28 days of the last dose) (patients with R/R AML [12]; 45 deaths): 29%
- total deaths (patients with R/R AML [12]; 101 of 153 patients): 66%
- on treatment deaths due to underlying AML or complications from AML (patients with R/R AML [12]; thirty-seven of 45 on treatment deaths): 82%
- patients with CR, CRh or CRi (preliminary efficacy) ([13]; 150mg BID, dose escalation/expansion portion, 5/13 patients): 38%
- dose-limiting toxicities ([13]; dose escalation): no dose-limiting toxicities observed

Structure (SMILES): N#Cc1ccnc(N2C(=O)CC[C@H]2C(=O)N(c2cncc(F)c2)[C@H](C(=O)NC2CC(F)(F)C2)c2ccccc2Cl)c1 [Ivosidenib, ivosidenib]
- CR + CRh rate ([14]; R/R AML with susceptible IDH1 mutation): 33%
- differentiation syndrome, all grades [14]: 19%
- differentiation syndrome, grade 3 or higher [14]: 13%
- median duration of response [14]: 8.2 months
- rate of conversion of TD to TI [14]: 37%
- rate of ALT elevation ([14]; patients with R/R AML): 15%
- rate of AST elevation ([14]; patients with R/R AML): 27%
- rate of all grade QTc prolongation ([14]; patients with R/R AML): 26%

Source: PMC11703669 (Clinical cancer research : an official journal of the …, 2025)
